# Assay results: patent publication EP1161438B1, “6-O-SUBSTITUTED MACROLIDES HAVING ANTIBACTERIAL ACTIVITY” (ABBOTT LABORATORIES, priority 1999, dated 2000)
# How the values were obtained:
# Assay in all cases: Agar dilution antibacterial MIC assay
# Type in all cases: cell-based
# Candida albicans CCH 442 = settings: organism code TT, BHI agar, 35-37 °C, 20 to 24 hours, unit assumed
# Procedure: (§1) Representative compounds of the present invention were assayed in vitro for antibacterial activity as follows: Twelve petri dishes containing successive aqueous dilutions of the test compound mixed with 10 mL of sterilized Brain Heart Infusion (BHI) agar (Difco 0418-01-5) were prepared. Each plate was inoculated with 1:100 (or 1:10 for slow-growing strains, such as Micrococcus and Streptococcus) dilutions of up to 32 different microorganisms, using a Steers replicator block. […] In addition, a control plate, using BHI agar containing no test compound, was prepared and incubated at the beginning and end of each test.
# (§2) An additional plate containing a compound having known susceptibility patterns for the organisms being tested and belonging to the same antibiotic class as the test compound was also prepared and incubated as a further control, as well as to provide test-to-test comparability.
# (§3) After incubation, each plate was visually inspected. The minimum inhibitory concentration (MIC) was defined as the lowest concentration of drug yielding no growth, a slight haze, or sparsely isolated colonies on the inoculum spot as compared to the growth control.
# [1] = system: Enterococcus faecium ATCC 8043; settings: organism code II, BHI agar, 35-37 °C, 20 to 24 hours, unit assumed
# Procedure: as §1, §2, §3
# Escherichia coli DC-2 = settings: organism code SS, BHI agar, 35-37 °C, 20 to 24 hours, unit assumed
# Procedure: as §1, §2, §3
# Escherichia coli JUHL = settings: organism code QQ, BHI agar, 35-37 °C, 20 to 24 hours, unit assumed
# Procedure: as §1, §2, §3
# Escherichia coli SS = settings: organism code RR, BHI agar, 35-37 °C, 20 to 24 hours, unit assumed
# Procedure: as §1, §2, §3
# [2] = system: Haemophilis Influenzae DILL AMP R; settings: organism code WW, BHI agar, 35-37 °C, 20 to 24 hours, unit assumed
# Procedure: as §1, §2, §3
# [3] = system: Micrococcus luteus ATCC 4698; settings: organism code PP, BHI agar, 35-37 °C, 20 to 24 hours, unit assumed
# Procedure: as §1, §2, §3
# [4] = system: Micrococcus luteus ATCC 9341; settings: organism code OO, BHI agar, 35-37 °C, 20 to 24 hours, unit assumed
# Procedure: as §1, §2, §3
# [5] = system: Mycobacterium smegmatis ATCC 114; settings: organism code UU, BHI agar, 35-37 °C, 20 to 24 hours, unit assumed
# Procedure: as §1, §2, §3
# [6] = system: Nocardia Asteroides ATCC9970; settings: organism code VV, BHI agar, 35-37 °C, 20 to 24 hours, unit assumed
# Procedure: as §1, §2, §3
# [7] = system: Staphylococcus aureus 1775; settings: organism code GG, BHI agar, 35-37 °C, 20 to 24 hours, unit assumed
# Procedure: as §1, §2, §3
# [8] = system: Staphylococcus aureus A-5278; settings: organism code CC, BHI agar, 35-37 °C, 20 to 24 hours, unit assumed
# Procedure: as §1, §2, §3
# [9] = system: Staphylococcus aureus A5177; settings: organism code BB, BHI agar, 35-37 °C, 20 to 24 hours, unit assumed
# Procedure: as §1, §2, §3
# [10] = system: Staphylococcus aureus ATCC 6538P; settings: organism code AA, BHI agar, 35-37 °C, 20 to 24 hours, unit assumed
# Procedure: as §1, §2, §3
# [11] = system: Staphylococcus aureus CMX 553; settings: organism code FF, BHI agar, 35-37 °C, 20 to 24 hours, unit assumed
# Procedure: as §1, §2, §3
# [12] = system: Staphylococcus aureus CMX 642A; settings: organism code DD, BHI agar, 35-37 °C, 20 to 24 hours, unit assumed
# Procedure: as §1, §2, §3
# [13] = system: Staphylococcus aureus NCTC10649M; settings: organism code EE, BHI agar, 35-37 °C, 20 to 24 hours, unit assumed
# Procedure: as §1, §2, §3
# [14] = system: Staphylococcus epidermidis 3519; settings: organism code HH, BHI agar, 35-37 °C, 20 to 24 hours, unit assumed
# Procedure: as §1, §2, §3
# [15] = system: Streptococcus Pneumonia 5649; settings: organism code ZZA, BHI agar, 35-37 °C, 20 to 24 hours, unit assumed
# Procedure: as §1, §2, §3
# [16] = system: Streptococcus Pneumonia 5979; settings: organism code ZZ, BHI agar, 35-37 °C, 20 to 24 hours, unit assumed
# Procedure: as §1, §2, §3
# [17] = system: Streptococcus Pneumonia ATCC6303; settings: organism code XX, BHI agar, 35-37 °C, 20 to 24 hours, unit assumed
# Procedure: as §1, §2, §3
# [18] = system: Streptococcus Pneumonia GYR 1171; settings: organism code YY, BHI agar, 35-37 °C, 20 to 24 hours, unit assumed
# Procedure: as §1, §2, §3
# [19] = system: Streptococcus agalactiae CMX 508; settings: organism code KK, BHI agar, 35-37 °C, 20 to 24 hours, unit assumed
# Procedure: as §1, §2, §3
# [20] = system: Streptococcus bovis A-5169; settings: organism code JJ, BHI agar, 35-37 °C, 20 to 24 hours, unit assumed
# Procedure: as §1, §2, §3
# [21] = system: Streptococcus pyogenes 930; settings: organism code MM, BHI agar, 35-37 °C, 20 to 24 hours, unit assumed
# Procedure: as §1, §2, §3
# [22] = system: Streptococcus pyogenes EES61; settings: organism code LL, BHI agar, 35-37 °C, 20 to 24 hours, unit assumed
# Procedure: as §1, §2, §3
# [23] = system: Streptococcus pyogenes PIU 2548; settings: organism code NN, BHI agar, 35-37 °C, 20 to 24 hours, unit assumed
# Procedure: as §1, §2, §3
compound,measurement,setting,value
"CC[C@H]1OC(=O)[C@H](C)C(=O)[C@H](C)[C@@H](O[C@@H]2O[C@H](C)C[C@H](N(C)C)[C@H]2O)[C@](C)(OCC#Cc2ccc(-c3cccnc3)s2)C[C@@H](C)C(=O)[C@H](C)[C@H]2NC(=O)O[C@@]21C [Example 2, Compound of Formula I: R^b is H, L is -C(O)-, T is -NH-, R is-(CH2)-C≡C-(5-(3-pyridyl)-2-thienyl)]",MIC,Candida albicans CCH 442,> 100 µg/mL
same,MIC,[1],0.05 µg/mL
same,MIC,Escherichia coli DC-2,25 µg/mL
same,MIC,Escherichia coli JUHL,25 µg/mL
same,MIC,Escherichia coli SS,0.1 µg/mL
same,MIC,[2],2 µg/mL
same,MIC,[3],0.1 µg/mL
same,MIC,[4],≤ 0.005 µg/mL
same,MIC,[5],0.2 µg/mL
same,MIC,[6],0.05 µg/mL
same,MIC,[7],> 100 µg/mL
same,MIC,[8],> 100 µg/mL
same,MIC,[9],0.05 µg/mL
same,MIC,[10],0.05 µg/mL
same,MIC,[11],0.05 µg/mL
same,MIC,[12],0.05 µg/mL
same,MIC,[13],0.05 µg/mL
same,MIC,[14],0.05 µg/mL
same,MIC,[15],0.12 µg/mL
same,MIC,[16],0.25 µg/mL
same,MIC,[17],0.03 µg/mL
same,MIC,[18],0.03 µg/mL
same,MIC,[19],≤ 0.005 µg/mL
same,MIC,[20],≤ 0.005 µg/mL
same,MIC,[21],3.1 µg/mL
same,MIC,[22],0.01 µg/mL
same,MIC,[23],0.1 µg/mL
